# Assay results published in publication PMC3042617, “Identification of Two Novel HLA-A*0201-Restricted CTL Epitopes Derived from MAGE-A4” (Clinical and Developmental Immunology, 2011).
# Test system: LB1751-MEL cells
# Test: Cytotoxicity (LDH release) of peptide-stimulated human PBMCs against LB1751-MEL
# Assay type: cell-based
# Conditions: PBMCs of healthy HLA-A*0201 donors, E/T 50/1, 25/1, 12.5/1, 4 h
# Experimental: (§1) PBMCs were isolated from the buffy coat of heparinized whole blood samples of healthy HLA-A*0201 donors by density gradient centrifugation on the Ficoll-Paque PREMIUM (GE Healthcare Bio-Sciences AB, Uppsala, Sweden). The effector lymphocytes and dendritic cells (DCs) were prepared by our published method. All donors signed written, informed consent to provide whole blood samples used in the study. Approval of the study was obtained from the relevant ethical committees and was in accordance with the Declaration of Helsinki.
# (§2) Three to five days after the final stimulation, the cytotoxic activity of the effector cells was evaluated by a lactate dehydrogenase release assay using Cytotox 96 Non-Radioactive Cytotoxicity Assay kit (Promega, USA). In brief, 1×10^4 target cells (LB1751-MEL, MCF-7 or MCF-7A4) in 50 μL RPMI 1640 containing 5% fetal calf serum (FCS) was placed in the wells of a 96-well round-bottom plate, then 50 μL of various concentrations of effector cells was added at different effector to target (E/T) ratios (50/1, 25/1, and 12.5/1). After 4 h incubation at 37°C, the supernatant was collected to assay lactate dehydrogenase (LDH) release by OD490 measurement according to the manufacturer's instructions. Experiments were performed in triplicates and the percentage of lysis was calculated as % Lysis = [(experimental LDH release − effector spontaneous LDH release − target spontaneous LDH release)/(target maximum LDH release − target spontaneous LDH release)] × 100.
# Figure 2 Induction of peptide-specific CTLs from human PBMCs. PBMCs from healthy HLA-A*0201 donors were first stimulated with peptide-pulsed autologous DCs and then restimulated with peptide-pulsed autologous PBMCs. After three to five days of the final stimulation, the stimulated PBMCs were used as effector cells to detect their cytotoxic activity against tumor cells at the indicated E/T ratios in a cytotoxicity assay. The irrelevant peptide HBcAg18–27 was taken as negative control. Each sample was measured in three replicates and the experiment was repeated three times. […] (c) P1- and P3-stimulated PBMCs mediated lysis of MCF-7A4 cells. (d) P1- and P3-stimulated PBMCs mediated lysis of MCF-7 cells.
row,Substance,Lysis of LB1751-MEL target cells by peptide-stimulated PBMCs
1,ALLEEEEGV [Peptide P2],could not lyse
2,ALPTTISFT [Peptide P4],could not lyse
3,FLWGPRALA [Peptide P3],could significantly lyse
4,KVLEHVVRV [Peptide P1],could significantly lyse

# Test system: peptide/HLA-A*0201 complex
# Test: Peptide/HLA-A*0201 complex stability on T2 cells
# Assay type: binding, human
# Conditions: T2 cells, 100 μM peptide overnight, 100 ng/mL human β2m, 37°C, Brefeldin A 10 μg/mL 1 h, then 0 h at 37°C; anti-HLA-A2 mAb staining
# Experimental: As previously described, T2 cells (10^6/mL) were incubated overnight with 100 μM of each peptide in serum-free RPMI 1640 medium supplemented with 100 ng/mL human β2m at 37°C. Then, they were washed to remove free peptides and incubated with 10 μg/mL of Brefeldin A (Sigma-Aldrich, USA) for 1 h to block newly synthesized HLA-A*0201 molecules to be expressed on cell surface, washed and incubated at 37°C for 0, 2, 4, 6, or 8 h. Subsequently, the cells were stained with the anti-HLA-A2 mAb to evaluate the expression of HLA-A*0201 molecules.
row,Substance,% MFI increase at indicated time point (h): 0
1,ALLEEEEGV [Peptide P2],170.07%
2,ALPTTISFT [Peptide P4],98.80%
3,FLWGPRALA [Peptide P3],285.66%
4,KVLEHVVRV [Peptide P1],126.16%

# Same assay, conditions: T2 cells, 100 μM peptide, 37°C, time points 0-8 h
row,DC50 (half-time of the peptide/HLA-A*0201 complex),Substance
1,2 h,ALLEEEEGV [Peptide P2]
2,2 h,ALPTTISFT [Peptide P4]
3,8 h,FLWGPRALA [Peptide P3]
4,4 to 6 h,KVLEHVVRV [Peptide P1]

# Same assay, conditions: as at 0 h, then 2 h at 37°C after Brefeldin A
row,Substance,% MFI increase at indicated time point (h): 2
1,ALLEEEEGV [Peptide P2],84.13%
2,ALPTTISFT [Peptide P4],48.73%
3,FLWGPRALA [Peptide P3],230.85%
4,KVLEHVVRV [Peptide P1],95.74%

# Same assay, conditions: as at 0 h, then 4 h at 37°C after Brefeldin A
row,Substance,% MFI increase at indicated time point (h): 4
1,ALLEEEEGV [Peptide P2],57.09%
2,ALPTTISFT [Peptide P4],30.79%
3,FLWGPRALA [Peptide P3],192.71%
4,KVLEHVVRV [Peptide P1],74.98%

# Same assay, conditions: as at 0 h, then 6 h at 37°C after Brefeldin A
row,Substance,% MFI increase at indicated time point (h): 6
1,ALLEEEEGV [Peptide P2],42.34%
2,ALPTTISFT [Peptide P4],21.01%
3,FLWGPRALA [Peptide P3],170.05%
4,KVLEHVVRV [Peptide P1],60.29%

# Same assay, conditions: as at 0 h, then 8 h at 37°C after Brefeldin A
row,Substance,% MFI increase at indicated time point (h): 8
1,ALLEEEEGV [Peptide P2],31.19%
2,ALPTTISFT [Peptide P4],18.52%
3,FLWGPRALA [Peptide P3],150.56%
4,KVLEHVVRV [Peptide P1],49.07%

# Test system: MCF-7A4 cells
# Test: Cytotoxicity (LDH release) of peptide-stimulated human PBMCs against MCF-7A4
# Assay type: cell-based
# Conditions: 4 h
# Source text: To establish a cell line expressing both HLA-A*0201 and MAGE-A4, MCF-7 cells were transfected with plasmid pCI-MAGEA4 using Lipofectamine 2000 (Invitrogen, USA) and then selected with G418. The expression of MAGE-A4 in the established cell line (designated MCF-7A4) was confirmed by reverse transcription-PCR and western blotting.
# as §1, with “Approval of the study was obtained from the relevant ethical committees and was in accordance with the Declaration of Helsinki.” left out
# Three to five days after the final stimulation, the cytotoxic activity of the effector cells was evaluated by a lactate dehydrogenase release assay using Cytotox 96 Non-Radioactive Cytotoxicity Assay kit (Promega, USA). […] Experiments were performed in triplicates and the percentage of lysis was calculated as % Lysis = [(experimental LDH release − effector spontaneous LDH release − target spontaneous LDH release)/(target maximum LDH release − target spontaneous LDH release)] × 100.
# Figure 2 Induction of peptide-specific CTLs from human PBMCs. […] Each sample was measured in three replicates and the experiment was repeated three times. […]
row,Substance,Lysis of MCF-7A4 cells (HLA-A*0201 and MAGE-A4 expressing) by peptide-primed effector cells
1,FLWGPRALA [Peptide P3],could also lyse
2,KVLEHVVRV [Peptide P1],could also lyse

# Test system: LB1751-MEL cells
# Test: In vivo induction of peptide-specific CTLs in HLA-A*0201/K^b transgenic mice
# Conditions: 100 μg peptide in IFA once, splenocytes after 10 days, restimulated in vitro 5 days with peptide and rmIL-2; LDH release
# Experimental: as §2
# HLA-A*0201/K^b mice were immunized with 100 μg of various peptides prepared in IFA or IFA emulsion without peptide as a control. After 10 days, mice were sacrificed and splenocytes were cultured for 5 days with 10 units/mL recombinant murine interleukin-2 (rmIL-2) and […]. And then, effector cells were counted and tested for cytotoxic activity in a cytotoxicity assay.
# Figure 3 In vivo induction of peptide-specific CTLs. […]
row,Substance,Lysis of LB1751-MEL target cells by splenocytes of peptide-inoculated mice
1,FLWGPRALA [Peptide P3],could lyse
2,KVLEHVVRV [Peptide P1],could lyse

# Biological target: HLA-A*0201 molecule (Homo sapiens, UniProt P04439, D140Y/D185E/D98H/E176V/E277Q/G131W/G231S/I119V/I121R/I166T/I218V/L300P/L318F/N151K/N90K/P208A/P217A/Q86G/Q94H/R138H/R169H/T345S)
# Test: T2-cell-peptide binding test (affinity of peptide for HLA-A*0201)
# Conditions: various peptide concentrations, 3 μg/mL human β2m, serum-free RPMI 1640, 37°C, 16 h, flow cytometry, three replicates, repeated three times
# Experimental: The affinity of peptides for HLA-A*0201 was measured as described previously. Briefly, T2 cells were incubated with various concentrations of each peptide and 3 μg/mL human β2m in serum-free RPMI 1640 medium at 37°C for 16 h. Then, the cells were washed and stained with antiHLA-A2 mAb and FITC-labeled goat anti-mouse IgG. The expression of HLA-A*0201 on T2 cells was determined with FACS Calibur flow cytometer (Becton Dickinson, USA). For each peptide concentration, the percent mean fluorescence index (% MFI) increase of HLA-A*0201 molecule was calculated as follows: % MFI increase = [(MFI with the given peptide − MFI without peptide)/(MFI without peptide)] × 100.
# Figure 1 Binding affinity of peptides for HLA-A*0201 molecule. T2 cells were incubated with indicated concentrations of the peptides in serum-free RPMI 1640 medium supplied with 3 μg/mL human β2m at 37°C for 16 h. And then the cells were stained with anti-HLA-A2 mAb and FITC-labeled goat antimouse IgG. The expression of HLA-A*0201 on T2 cells was determined with FACS Calibur flow cytometer. The peptides HBcAg18–27 and OVA257–264 were taken as positive control and negative control, respectively. Each sample was measured in three replicates and the experiment was repeated three times.
row,Binding affinity for HLA-A*0201 molecule (increase of HLA-A*0201 expression on T2 cells),Substance
1,lower affinity,ALLEEEEGV [Peptide P2]
2,lowest affinity,ALPTTISFT [Peptide P4]
3,highest affinity,FLWGPRALA [Peptide P3]
4,lowest affinity,KVLEHVVRV [Peptide P1]
5,did not increase,"OVA257–264: control peptide, negative control in HLA-A*0201 binding test (ESIINFEK; UniProt P01012 257-264, looked up, fragment) [reference compound]"
